Experimental findings from US12291536B2, “Crystal form of Wee1 inhibitor compound and use thereof” (Wuxi Biocity Biopharmaceutics Co., Ltd., priority 2019, dated 2025) are described below.

Data set [1] can be described thus: Solid stability test of Crystal Form F under high temperature, high humidity, illumination and accelerated conditions. The class given is physicochemical. As for the experimental part:
According to influencing factors and accelerated test conditions, about 5 mg of Crystal Form F of the Compound of Formula (I) was weighed precisely and placed in a dry and clean glass bottle, in duplicate, and spread into a thin layer, as the formal test sample, placed under the influencing factors test conditions (60° C., 92.5% RH (relative humidity)) and accelerated conditions (40° C./75% RH and 60° C./75% RH), with the samples fully exposed. The test system was covered with an aluminum foil paper with small holes. In addition, a small amount of samples were taken and placed in a 40 mL glass sample bottle under the same conditions to determine the crystal state. Sampling and analysis were performed on day 5 days, 10 days, and one month. The samples placed under Illumination (visible light 1200000 Lux, UV 200 W) conditions were fully exposed at room temperature.

The nature of data set [2]: Pharmacokinetic evaluation after single intravenous and single oral administration. In kind it is in vivo, female Balb/c Nude mice. Conditions: female, Balb/c Nude; for AUC(0-t): read-out: Area under the drug-time curve AUC0-last; for half-life: read-out: Half-life T1/2 (converted). The procedure: Twelve mice (provided by Lingchang) were randomly divided into two groups, 6 females in each group, and samples were collected by cross-blood sampling.
In the intravenous group, plasma samples were collected at 9 time points: 5 min, 15 min, 30 min, 1 h, 2 h, 4 h, 6 h, 8 h, and 24 h after the administration. In the oral group, plasma samples were collected at 8 time points: 15 min, 30 min, 1 h, 2 h, 4 h, 6 h, 8 h and 24 h after the administration.

Data set [3] has as its system human pancreatic cancer BxPC-3 cell xenograft tumor. In words: In vivo pharmacodynamic study, human pancreatic cancer BxPC-3 subcutaneously transplanted tumor model. Conditions: BxPC-3 xenograft, gavage 25 mg/Kg once a day, 27 days. On the set-up: species or system BALB/c nude mice. The procedure: Experimental procedure: The selected experimental animals were BALB/c nude mice, 6-8 weeks, weighing 18-22 g.
The 10th generation of BxPC-3 cells were cultured in monolayer in vitro, and the culture conditions were RPMI 1640 medium (Manufacturer: Gibco, Catalog: 22400-089) with 10% fetal bovine serum, 100 U/mL penicillin and 100 μg/mL Streptomycin, 37° C., 5% CO2, 4 passages. The passage method was twice a week with trypsin-EDTA for routine digestion and passage. When the cell saturation reached 80%-90%, the cells were digested with trypsin-EDTA, counted, and resuspended in PBS at a density of 5×10^7 cells/mL. Each animal was inoculated with 0.1 mL (5×10^6 cells) of BxPC-3 cells on the right back. When the average tumor volume reached 153 mm^3, they were randomly grouped according to the tumor volume and administration was started. Gavage dosage: 25 mg/Kg, once a day.
(§1) The experimental index was to investigate whether the tumor growth was inhibited, alleviated or cured. The diameters of the tumors were measured with a vernier caliper twice a week. The anti-tumor efficacy of the compound was evaluated by TGI (%) or the relative tumor growth rate T/C (%). TGI (%) reflects the tumor growth inhibition rate. […]
On the technique in general: Xenograft models place foreign cells or tissue in a host animal.

For data set [4], the system named is human colon cancer LoVo cell subcutaneous xenograft tumor. In words: In vivo pharmacodynamic study, human colon cancer LoVo cell subcutaneous xenograft tumor model. On the set-up: species or system BALB/c nude mice. To be noted: gavage 40 mg/kg twice a day, 16 days. As for the experimental part: Experimental method: The selected experimental animals (provided by Shanghai SIPPR-BK Experimental Animal Co., Ltd.) were BALB/c nude mice, 6-8 weeks, weighing 18-22 g.
Human colon cancer LoVo cells were cultured in monolayer in vitro, and culture conditions were Ham's F-12 medium with 10% fetal bovine serum, 100 U/mL penicillin, 100 μg/mL streptomycin and 2 mM glutamine, 37° C., 5% CO2. Trypsin-EDTA was used for routine digestion and passage, twice a week. When the cell saturation is 80%-90%, the cells were collected, counted, and inoculated. 0.1 mL (10×10^6 cells) of LoVo cells were subcutaneously inoculated on the right back of each nude mouse, and group administration was initiated when the average tumor volume reached 213 mm^3. Dosage for gavage administration was 40 mg/kg, twice a day. The experimental index was to investigate whether the tumor growth was inhibited, alleviated or cured. The diameters of the tumors were measured with a vernier caliper twice a week. The calculation formula for the tumor volume was V=0.5a×b^2, where a and b represent the long diameter and short diameter of the tumor, respectively.
The anti-tumor efficacy of the compound was evaluated by TGI (%) or the relative tumor growth rate T/C (%). TGI (%) reflects the tumor growth inhibition rate. […]

In data set [5] the test system is mouse colon cancer CT26 cell allograft tumor. In words: In vivo anti-tumor efficacy, CT26 mouse colon cancer cell transplanted tumor model. On the set-up: species or system BALB/c nude mice. Conditions: gavage 30 mg/kg twice a day, 18 days. The procedure: Experimental procedure: The selected experimental animals were BALB/c nude mice, 7 weeks, weighing 16-20 g, female.
Cells: Mouse colon cancer CT26 cells (Cell Bank of Type Culture Collection Committee of Chinese Academy of Sciences) were cultured in monolayer in vitro, and culture condition was RPMI-1640 medium containing 10% fetal bovine serum, in 37° C., 5% CO2 incubator. Trypsin-EDTA was used for routine digestion and passage. When the cells were in the exponential growth phase and the saturation was 80%-90%, the cells were collected, counted, and inoculated. 0.1 mL of DPBS (containing 3×10^5 CT26 cells) was subcutaneously inoculated on the right back of each mouse. When the average tumor volume reached 50-70 mm^3, randomized administration was carried out according to the tumor volume. Gavage dosage: 30 mg/kg, twice a day.
as §1

The next data set has as its target T1, Wee1 (Homo sapiens, UniProt P30291).
T1 construct: purchased Eurofins
In words: In vitro enzymatic inhibitory activity (Eurofins, [γ-33P]-ATP filter assay). To be noted: 10 μM ATP, 40 min, room temperature. In kind it is biochemical.

For a further data set, the system named is P-gp (MDR1). In words: In vitro permeability test in MDR1-MDCK II cells. The class given is in vitro ADME, canine. Conditions: dog. An excerpt:
(§2) MDR1-MDCK II cell authorized by the Piet Borst Laboratory of the Netherlands Cancer Institute was used in the study, the cell is a Madin-Darby canine kidney cell transfected with the human multi-drug resistance gene (MDR1), which can stably express efflux transporter P glycoprotein (P-gp) and therefore is suitable for screening P-gp substrate or inhibitor, and for predicting the permeability of compounds with high efflux barriers such as duodenum, blood-brain barrier, […], and kidney unit. MDR1-MDCK II cells of from passage 5-35 were used for permeability study.
(§3) MDR1-MDCK II cells were cultured with α-MEM medium (α-Minimum Essential Media) under culture condition of 37±1° C., 5% CO2 and saturated relative humidity. Then, the cells were seeded in a BD Transwell-96 well plate at a seeding density of 2.3×10^5 cells/cm^2, and then the cells were cultured in a carbon dioxide incubator for 4-7 days for transport experiment. The preparation method of its α-MEM medium was as follows:
(§4) The liquid nutrient base was prepared with powder (α-MEM powder from Gibco, Cat #:11900) dissolved in pure water, and was added with L- (L-glutamine) and NaHCO3. Then 10% FBS (fetal bovine serum), 1% PS (double antibody) and 1% NEAA were added upon use to make a complete medium. […]
(§5) After all samples were vortexed and centrifuged at 3220 g for 10 min, an appropriate volume of supernatant was transferred to the sample analysis plate. After the plate was sealed, the sample should be stored at 2-8° C. if it was not analyzed immediately, using the LC-MS/MS method for analysis.
(§6) After the transport experiment was over, the integrity of the MDR1-MDCK II cells was tested by the Lucifer Yellow Rejection Assay. After 30 min of incubation with the Lucifer Yellow solution, the Lucifer Yellow sample was collected, and the 2e plate reader set at 425/528 nm (Excitation/Emission) was used to detect the relative fluorescence intensity (RFU) of fluorescent yellow in the sample.

Another data set deals with P-gp (human MDR1). In words: In vitro permeability test in MDR1-MDCK II cells. In kind it is in vitro ADME, canine. To be noted: dog.
From the text: as §2, §3, §4, §5, §6

The mark [6] stands for this setting: Illumination (visible light 1200000 Lux, UV 200 W), room temperature.
Setting [7] is: po, Administration by gavage, 10 mg/kg, mouse plasma.
[8] abbreviates: Intravenous administration, 1 mg/kg, mouse plasma.

In general, bioavailability refers to the share of a dose that reaches the circulation, judged against a reference dose that is usually intravenous. One may read the IC50 as the concentration that inhibits the measured activity by half. The low end stands for greater potency, the high end for weaker potency. Broadly, the efflux ratio is the permeability from basolateral to apical divided by that in the opposite direction, in the common usage.

T1 sequence (P30291 whole entry): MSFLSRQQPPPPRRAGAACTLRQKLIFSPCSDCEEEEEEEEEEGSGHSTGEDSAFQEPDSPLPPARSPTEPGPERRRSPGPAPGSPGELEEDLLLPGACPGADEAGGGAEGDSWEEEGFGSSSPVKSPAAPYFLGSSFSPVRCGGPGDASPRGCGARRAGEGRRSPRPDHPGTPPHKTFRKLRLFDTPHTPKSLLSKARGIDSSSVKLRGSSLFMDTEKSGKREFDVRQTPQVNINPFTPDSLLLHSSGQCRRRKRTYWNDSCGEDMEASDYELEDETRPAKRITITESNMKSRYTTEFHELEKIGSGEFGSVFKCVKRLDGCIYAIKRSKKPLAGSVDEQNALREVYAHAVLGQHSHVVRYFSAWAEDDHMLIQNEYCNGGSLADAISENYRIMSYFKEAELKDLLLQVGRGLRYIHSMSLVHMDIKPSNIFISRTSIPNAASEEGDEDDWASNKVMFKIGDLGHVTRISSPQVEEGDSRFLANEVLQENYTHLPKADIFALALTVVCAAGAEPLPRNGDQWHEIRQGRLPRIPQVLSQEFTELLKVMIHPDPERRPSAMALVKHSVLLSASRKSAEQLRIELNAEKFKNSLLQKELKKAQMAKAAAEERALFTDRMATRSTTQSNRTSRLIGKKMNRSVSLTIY
Procedure for Wee1: The experimental test was carried out in Eurofins, and the experimental results were provided by the company.
Into the test system were added 20 mM Tris-HCl, pH 8.5, 0.2 mM EDTA, 500 μM polypeptide substrate ([sequence]), 10 mM magnesium acetate and 10 μM [γ-^33P]-ATP (intensity of about 500 cpm/pmol). After addition of Mg^2+ and ATP mixture, the reaction was initiated and incubated at room temperature for 40 min. 3% phosphate buffer was added to stop the reaction.
10 μL of reaction solution was taken and filtered on a continuous filter P30, and washed three times with 75 mM phosphate buffer, once with methanol, each washing for 5 min. After drying, the values were read by scintillation counting method.

For `CN1CCN(c2ccc(Nc3ncc4c(=O)n5n(c4n3)-c3cccc(n3)[C@](C)(O)CC/C=C\C5)cc2)CC1` [Crystal Form F], the Content % in data set [1] (0 day) is 99.38%; in data set [1] (40° C.-75% humidity, 1 month), 97.94%; in data set [1] (40° C.-75% humidity, 10 day), 98.01%; in data set [1] (60° C., 5 days) it was 99.39%; in data set [1] (60° C., 10 days) it was 99.98%; in data set [1] (60° C.-75% humidity, 1 month), 99.46%. For the same compound, the Content % is 100.43% in data set [1] (60° C.-75% humidity, 10 day); 98.72% in data set [1] (92.5% humidity, 5 days); 98.38% in data set [1] (92.5% humidity, 10 days); 98.58% in data set [1] (setting [6]); 97.77% in data set [1] (Protection from light). In addition, the Total impurity % worked out at 0.63% in data set [1] (0 day); 0.62% in data set [1] (40° C.-75% humidity, 1 month); 0.63% in data set [1] (40° C.-75% humidity, 10 day); 0.74% in data set [1] (60° C., 5 days); 0.84% in data set [1] (60° C., 10 days); 0.75% in data set [1] (60° C.-75% humidity, 1 month). Further, the Total impurity % in data set [1] (60° C.-75% humidity, 10 day) was 0.69%; in data set [1] (92.5% humidity, 5 days), 0.61%; in data set [1] (92.5% humidity, 10 days), 0.64%; in data set [1] (setting [6]), 0.67%; in data set [1] (Protection from light), 0.61%. In addition, the “Crystal form change (physical stability)” value in data set [1] (one-month solid influencing factor and accelerated test) is listed as “did not change”.

Turning to `C=CCn1c(=O)c2cnc(Nc3ccc(N4CCN(C)CC4)cc3)nc2n1-c1cccc(C(C)(C)O)n1` [AZD1775, reference compound], the AUC(0-t) in data set [2] (setting [7]) was determined as 1.2 µM·h. Moreover, the half-life in data set [2] (setting [8]) is 15.1 min. Also, the entries for the “TGI (%)” value in data set [3], in data set [4] and in data set [5] were 24.3%, 26.73% and 66.43%, respectively.

With `CN1CCN(c2ccc(Nc3ncc4c(=O)n5n(c4n3)-c3cccc(n3)[C@](C)(O)CC/C=C\C5)cc2)CC1` (single isomer, unassigned) [Compound of Formula (I)], the bioavailability in data set [2] (mouse, plasma, po, Administration by gavage, 10 mg/kg, read-out: Bioavailability F (%)) is 62.4%. For the same compound, the AUC(0-t) in data set [2] (setting [7]) turned out to be 6.04 µM·h. The clearance in data set [2] (Intravenous administration, 1 mg/kg, mouse plasma, read-out: Clearance rate) stood at 33.5 mL/min/kg. For the same compound, the half-life in data set [2] (setting [8]) was 101 min. On Wee1, this compound yielded a 50% inhibitory concentration (IC50) of 29 nM. Moreover, the entries for the “TGI (%)” value in data set [3], in data set [4] and in data set [5] were 73.3%, 84.74% and 93.38%, respectively. For the same compound, the Papp A→B at 150 min, 2 μM with P-gp (MDR1) (read-out: Penetration rate A to B) stood at 4.55 ×10⁻⁶ cm/s. Further, the Papp B→A at 150 min, 2 μM in the data set with P-gp (MDR1) (read-out: Penetration rate B to A) amounted to 17.4 ×10⁻⁶ cm/s. The efflux ratio at 150 min, 2 μM with P-gp (human MDR1) amounted to 3.82.
